Literature values as cited in patent US20070134341A1, “COMPOSITIONS OF LIPOXYGENASE INHIBITORS” (priority 2005, published 2007).

solubility in acetonitrile (acetonitrile): slightly soluble | solubility in ethanol (ethanol): soluble | solubility in hexane (hexane): practically insoluble | solubility in methanol (methanol): soluble | solubility in water (water): practically insoluble | water solubility (water, 25° C.): 80 to 140 µg/mL
SMILES: CC(c1cc2ccccc2s1)N(O)C(N)=O (racemic) [Zileuton, (±)-1-(1-benzo[b]thien-2-ylethyl)-1-hydroxyurea]
